Reference: ChEMBL document CHEMBL2311250 (Bioorg Med Chem Lett, 2013)
≈ marks a conversion by molar mass, not a printed value.

Experiments:
[1] = Aqueous solubility of the compound at ph 6.5; type: physicochemical
[2] = Permeability of the compound by PAMPA; type: ADME; details: read-out: permeability
hERG (KCNH2) = hERG (KCNH2) (Homo sapiens, UniProt Q12809); test: Displacement of [3H]dofetilide from human ERG at 10 uM; details: probe [3H]dofetilide
[3] = Half life in human liver microsomes; type: ADME, Microsome
[4] = biological target: T1, Tyrosine-protein kinase receptor TYRO3 (Homo sapiens, UniProt Q06418); test: Inhibition of Sky (unknown origin) by ELISA kinase assay in presence of 60 uM ATP
T1 sequence (Q06418 whole entry): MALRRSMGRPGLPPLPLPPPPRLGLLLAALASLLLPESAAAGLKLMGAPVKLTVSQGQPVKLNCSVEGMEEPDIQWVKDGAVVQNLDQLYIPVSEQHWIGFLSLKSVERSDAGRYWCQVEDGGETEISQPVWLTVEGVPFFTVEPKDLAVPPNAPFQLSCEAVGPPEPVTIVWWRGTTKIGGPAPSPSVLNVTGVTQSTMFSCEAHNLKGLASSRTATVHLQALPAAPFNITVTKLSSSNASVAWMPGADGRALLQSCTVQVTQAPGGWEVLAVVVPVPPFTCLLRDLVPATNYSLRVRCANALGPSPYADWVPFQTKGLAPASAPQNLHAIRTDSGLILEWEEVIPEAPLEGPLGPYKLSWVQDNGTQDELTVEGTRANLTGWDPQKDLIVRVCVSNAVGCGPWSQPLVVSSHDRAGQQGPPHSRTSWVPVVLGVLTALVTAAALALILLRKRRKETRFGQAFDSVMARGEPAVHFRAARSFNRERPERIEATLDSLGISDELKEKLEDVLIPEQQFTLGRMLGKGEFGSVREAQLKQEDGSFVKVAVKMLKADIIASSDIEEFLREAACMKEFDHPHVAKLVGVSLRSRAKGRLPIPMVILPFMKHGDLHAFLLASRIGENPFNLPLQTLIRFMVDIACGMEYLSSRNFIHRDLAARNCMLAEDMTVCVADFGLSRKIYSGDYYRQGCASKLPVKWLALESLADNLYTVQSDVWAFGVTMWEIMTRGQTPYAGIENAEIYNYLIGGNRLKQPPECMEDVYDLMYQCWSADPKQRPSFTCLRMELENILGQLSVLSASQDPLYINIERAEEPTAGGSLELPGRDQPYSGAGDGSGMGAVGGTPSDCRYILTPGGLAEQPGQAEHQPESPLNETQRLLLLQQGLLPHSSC

CYP2D6 = CYP2D6 (Homo sapiens, UniProt P10635); test: Inhibition of CYP2D6 (unknown origin) at 3 uM; type: ADME
CYP2D6, sequence (P10635 whole entry): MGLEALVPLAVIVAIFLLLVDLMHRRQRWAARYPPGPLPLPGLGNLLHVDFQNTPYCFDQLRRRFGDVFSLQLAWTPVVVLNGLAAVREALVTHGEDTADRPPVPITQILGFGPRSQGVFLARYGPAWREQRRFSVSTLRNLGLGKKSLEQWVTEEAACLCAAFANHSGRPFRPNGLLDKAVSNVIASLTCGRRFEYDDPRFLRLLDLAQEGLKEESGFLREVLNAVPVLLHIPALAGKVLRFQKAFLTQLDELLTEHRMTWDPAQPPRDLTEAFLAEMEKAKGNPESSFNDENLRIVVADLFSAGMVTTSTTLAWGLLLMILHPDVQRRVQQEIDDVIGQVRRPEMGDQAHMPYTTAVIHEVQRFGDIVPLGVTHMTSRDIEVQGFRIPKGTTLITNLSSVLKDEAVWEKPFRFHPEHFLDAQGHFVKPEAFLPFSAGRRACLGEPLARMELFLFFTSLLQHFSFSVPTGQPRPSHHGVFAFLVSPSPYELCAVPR

[5] = Half life in rat liver microsomes; type: ADME, Microsome
Platelet = test: Inhibition of platelet aggregation (unknown origin); type: functional, cell-based
[6] = Oral bioavailability in Sprague-Dawley rat at 5 mg/kg; type: ADME, organism-based; details: in vivo
[7] = Cmax in Sprague-Dawley rat at 1 mg/kg, iv and 5 mg/kg, po; type: ADME, organism-based; details: in vivo
[8] = Clearance in Sprague-Dawley rat at 1 mg/kg, iv and 5 mg/kg, po; type: ADME, organism-based; details: in vivo
[9] = Volume of distribution at steady state in Sprague-Dawley rat at 1 mg/kg, iv and 5 mg/kg, po; type: ADME, organism-based; details: in vivo, read-out: Vdss
[10] = Half life in Sprague-Dawley rat at 1 mg/kg, iv and 5 mg/kg, po; type: ADME, organism-based; details: in vivo
[11] = biological target: Tyrosine-protein kinase Lck (Homo sapiens, UniProt P06239); test: Inhibition of LCK (unknown origin) in presence of ATP
Tyrosine-protein kinase Lck, sequence (P06239 whole entry): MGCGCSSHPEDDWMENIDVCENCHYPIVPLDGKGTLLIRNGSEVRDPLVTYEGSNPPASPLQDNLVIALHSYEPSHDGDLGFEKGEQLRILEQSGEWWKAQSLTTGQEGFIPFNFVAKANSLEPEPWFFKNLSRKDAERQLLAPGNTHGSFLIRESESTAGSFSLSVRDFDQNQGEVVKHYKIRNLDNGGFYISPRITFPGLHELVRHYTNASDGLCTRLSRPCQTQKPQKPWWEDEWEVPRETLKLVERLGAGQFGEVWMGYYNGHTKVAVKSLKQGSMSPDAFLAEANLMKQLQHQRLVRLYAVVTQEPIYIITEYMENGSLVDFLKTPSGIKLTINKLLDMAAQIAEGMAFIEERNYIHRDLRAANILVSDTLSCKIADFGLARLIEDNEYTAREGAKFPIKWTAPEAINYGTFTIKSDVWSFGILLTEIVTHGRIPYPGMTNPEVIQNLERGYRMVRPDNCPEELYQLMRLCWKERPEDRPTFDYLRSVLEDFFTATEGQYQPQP

[12] = biological target: Tyrosine-protein kinase ABL1 (Homo sapiens, UniProt P00519); test: Inhibition of ABL (unknown origin) in presence of ATP
Tyrosine-protein kinase ABL1, sequence (P00519 whole entry): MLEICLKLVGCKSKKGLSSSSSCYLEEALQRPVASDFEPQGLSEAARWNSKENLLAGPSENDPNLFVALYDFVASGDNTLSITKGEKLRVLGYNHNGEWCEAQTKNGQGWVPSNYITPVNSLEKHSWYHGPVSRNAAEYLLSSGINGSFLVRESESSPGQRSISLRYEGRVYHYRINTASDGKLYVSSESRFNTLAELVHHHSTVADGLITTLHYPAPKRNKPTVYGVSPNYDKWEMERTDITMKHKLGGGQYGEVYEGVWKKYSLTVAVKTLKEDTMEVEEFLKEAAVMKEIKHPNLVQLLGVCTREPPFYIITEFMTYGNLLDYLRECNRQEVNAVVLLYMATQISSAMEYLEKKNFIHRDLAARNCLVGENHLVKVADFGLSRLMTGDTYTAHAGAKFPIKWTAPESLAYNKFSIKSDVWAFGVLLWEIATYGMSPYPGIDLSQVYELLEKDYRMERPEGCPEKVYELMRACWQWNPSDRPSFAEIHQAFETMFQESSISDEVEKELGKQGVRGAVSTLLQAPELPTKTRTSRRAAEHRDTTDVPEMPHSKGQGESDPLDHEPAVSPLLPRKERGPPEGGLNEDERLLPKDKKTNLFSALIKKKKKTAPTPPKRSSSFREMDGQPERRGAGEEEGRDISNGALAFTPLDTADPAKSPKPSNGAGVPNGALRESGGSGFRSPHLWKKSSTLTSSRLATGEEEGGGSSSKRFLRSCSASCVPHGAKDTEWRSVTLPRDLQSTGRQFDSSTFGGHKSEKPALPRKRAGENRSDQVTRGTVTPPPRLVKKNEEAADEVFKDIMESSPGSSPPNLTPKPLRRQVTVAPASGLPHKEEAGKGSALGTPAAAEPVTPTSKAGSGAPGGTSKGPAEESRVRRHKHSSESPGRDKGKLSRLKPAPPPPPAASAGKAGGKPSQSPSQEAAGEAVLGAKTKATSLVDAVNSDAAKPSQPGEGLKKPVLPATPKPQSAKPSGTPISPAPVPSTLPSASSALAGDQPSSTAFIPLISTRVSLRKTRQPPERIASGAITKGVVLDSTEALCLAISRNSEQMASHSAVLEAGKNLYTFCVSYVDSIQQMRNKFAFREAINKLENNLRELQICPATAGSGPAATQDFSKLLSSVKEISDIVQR

[13] = AUC in Sprague-Dawley rat at 1 mg/kg, iv and 5 mg/kg, po; type: ADME, organism-based; details: plasma
[14] = biological target: Dual specificity protein kinase CLK1 (Homo sapiens, UniProt P49759); test: Inhibition of CLK1 (unknown origin) in presence of ATP
[15] = biological target: Calcium/calmodulin-dependent protein kinase type 1 (Homo sapiens, UniProt Q14012); test: Inhibition of CAMK1 (unknown origin) in presence of ATP
[16] = biological target: Myosin light chain kinase 2, skeletal/cardiac muscle (Homo sapiens, UniProt Q9H1R3); test: Inhibition of MYLK2 (unknown origin) in presence of ATP
Myosin light chain kinase 2, skeletal/cardiac muscle, sequence (Q9H1R3 whole entry): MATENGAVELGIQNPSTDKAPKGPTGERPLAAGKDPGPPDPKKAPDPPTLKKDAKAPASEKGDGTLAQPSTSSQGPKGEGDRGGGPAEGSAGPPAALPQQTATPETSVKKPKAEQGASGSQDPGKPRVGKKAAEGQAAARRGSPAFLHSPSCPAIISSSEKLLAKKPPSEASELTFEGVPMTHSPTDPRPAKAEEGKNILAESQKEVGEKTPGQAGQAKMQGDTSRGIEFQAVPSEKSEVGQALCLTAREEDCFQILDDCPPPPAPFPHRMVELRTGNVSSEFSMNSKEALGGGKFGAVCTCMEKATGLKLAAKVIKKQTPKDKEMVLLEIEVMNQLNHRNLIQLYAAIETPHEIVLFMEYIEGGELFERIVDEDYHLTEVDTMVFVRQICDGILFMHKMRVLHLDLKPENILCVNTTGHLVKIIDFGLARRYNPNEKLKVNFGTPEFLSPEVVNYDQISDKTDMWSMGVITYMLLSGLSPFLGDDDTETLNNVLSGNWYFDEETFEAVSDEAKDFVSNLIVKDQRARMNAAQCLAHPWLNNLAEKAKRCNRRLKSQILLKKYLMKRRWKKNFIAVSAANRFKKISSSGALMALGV

[17] = biological target: Mitogen-activated protein kinase kinase kinase kinase 4 (Homo sapiens, UniProt O95819); test: Inhibition of MAP4K4 (unknown origin) in presence of ATP
[18] = biological target: Mitogen-activated protein kinase kinase kinase 9 (Homo sapiens, UniProt P80192); test: Inhibition of MAP3K9 (unknown origin) in presence of ATP
Mitogen-activated protein kinase kinase kinase 9, sequence (P80192 whole entry): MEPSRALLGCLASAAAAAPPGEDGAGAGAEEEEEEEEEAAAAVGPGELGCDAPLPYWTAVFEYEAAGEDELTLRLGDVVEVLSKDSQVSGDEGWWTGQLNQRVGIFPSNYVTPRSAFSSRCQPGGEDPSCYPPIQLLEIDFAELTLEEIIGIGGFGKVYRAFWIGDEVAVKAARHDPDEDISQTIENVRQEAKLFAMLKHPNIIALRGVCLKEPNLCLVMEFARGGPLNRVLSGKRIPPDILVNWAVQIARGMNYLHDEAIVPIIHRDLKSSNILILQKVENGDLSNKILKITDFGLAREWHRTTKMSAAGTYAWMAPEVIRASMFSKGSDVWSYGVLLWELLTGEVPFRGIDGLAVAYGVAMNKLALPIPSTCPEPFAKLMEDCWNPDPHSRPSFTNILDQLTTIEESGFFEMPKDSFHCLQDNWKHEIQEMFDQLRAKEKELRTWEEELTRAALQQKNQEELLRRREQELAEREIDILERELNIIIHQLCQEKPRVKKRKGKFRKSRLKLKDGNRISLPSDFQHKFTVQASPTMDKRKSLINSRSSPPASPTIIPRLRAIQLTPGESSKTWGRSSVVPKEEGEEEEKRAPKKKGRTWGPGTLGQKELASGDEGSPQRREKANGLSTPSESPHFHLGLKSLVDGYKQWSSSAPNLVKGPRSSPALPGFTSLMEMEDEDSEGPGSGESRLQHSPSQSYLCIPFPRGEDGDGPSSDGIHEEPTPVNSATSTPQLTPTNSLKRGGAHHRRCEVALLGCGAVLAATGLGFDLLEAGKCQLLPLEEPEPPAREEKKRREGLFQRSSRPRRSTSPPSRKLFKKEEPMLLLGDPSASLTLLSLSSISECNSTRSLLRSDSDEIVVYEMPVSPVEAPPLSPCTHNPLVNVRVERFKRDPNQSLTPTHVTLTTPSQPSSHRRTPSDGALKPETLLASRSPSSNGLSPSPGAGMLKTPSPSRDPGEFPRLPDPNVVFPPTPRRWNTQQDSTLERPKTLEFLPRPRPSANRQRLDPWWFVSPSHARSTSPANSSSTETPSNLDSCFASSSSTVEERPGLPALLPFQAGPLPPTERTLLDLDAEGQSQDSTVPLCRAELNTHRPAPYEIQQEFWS

Insulin receptor = Insulin receptor (Homo sapiens, UniProt P06213); test: Inhibition of INSR (unknown origin) in presence of ATP
[19] = biological target: Fibroblast growth factor receptor 1 (Homo sapiens, UniProt P11362); test: Inhibition of FGFR1 (unknown origin) in presence of ATP
[20] = biological target: Casein kinase I isoform delta (Homo sapiens, UniProt P48730); test: Inhibition of CK1-delta (unknown origin) in presence of ATP
[21] = biological target: RAC-alpha serine/threonine-protein kinase (Homo sapiens, UniProt P31749); test: Inhibition of AKT1 (unknown origin) in presence of ATP

hERG (KCNH2), sequence (Q12809 whole entry): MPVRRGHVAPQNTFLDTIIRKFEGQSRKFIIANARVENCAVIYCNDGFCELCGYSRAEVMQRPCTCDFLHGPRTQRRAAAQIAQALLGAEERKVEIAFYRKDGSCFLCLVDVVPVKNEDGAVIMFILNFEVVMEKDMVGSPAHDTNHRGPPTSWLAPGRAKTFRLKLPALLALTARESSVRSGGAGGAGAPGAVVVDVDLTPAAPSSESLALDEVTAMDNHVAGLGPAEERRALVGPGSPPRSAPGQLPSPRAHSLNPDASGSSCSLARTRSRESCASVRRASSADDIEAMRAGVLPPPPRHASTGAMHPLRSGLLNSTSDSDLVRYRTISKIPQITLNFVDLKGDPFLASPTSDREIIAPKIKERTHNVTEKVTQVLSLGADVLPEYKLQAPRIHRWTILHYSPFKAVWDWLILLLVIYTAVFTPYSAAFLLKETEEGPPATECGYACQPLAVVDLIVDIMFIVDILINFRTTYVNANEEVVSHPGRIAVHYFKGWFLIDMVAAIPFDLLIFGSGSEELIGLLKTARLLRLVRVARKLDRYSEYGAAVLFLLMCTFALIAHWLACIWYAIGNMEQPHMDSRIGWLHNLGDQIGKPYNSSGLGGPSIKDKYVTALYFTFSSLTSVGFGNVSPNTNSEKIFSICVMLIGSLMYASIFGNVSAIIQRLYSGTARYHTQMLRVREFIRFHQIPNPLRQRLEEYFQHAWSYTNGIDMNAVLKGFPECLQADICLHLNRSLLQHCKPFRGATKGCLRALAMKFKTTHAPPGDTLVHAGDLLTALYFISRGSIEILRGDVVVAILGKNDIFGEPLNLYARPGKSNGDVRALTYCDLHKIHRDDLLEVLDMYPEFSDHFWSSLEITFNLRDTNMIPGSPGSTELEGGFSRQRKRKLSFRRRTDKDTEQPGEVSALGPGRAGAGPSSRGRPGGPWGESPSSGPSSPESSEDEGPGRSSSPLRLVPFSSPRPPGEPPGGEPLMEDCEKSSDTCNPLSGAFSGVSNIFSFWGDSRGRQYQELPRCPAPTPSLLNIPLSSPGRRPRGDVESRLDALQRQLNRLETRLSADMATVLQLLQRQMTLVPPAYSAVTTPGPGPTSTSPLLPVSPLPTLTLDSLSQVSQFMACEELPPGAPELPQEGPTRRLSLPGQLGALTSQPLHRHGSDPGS

solubility [1] [µM]	Papp [2] [×10⁻⁶ cm/s]	half-life [3] [min]	IC50 [4] [µM]	half-life [5] [min]	IC50 (Platelet) [µM]	Structure (SMILES)	inhibition at 10 µM (hERG (KCNH2)) [%]	further results
2.3 (≈ 1.16 µg/mL)	0.2	41	0.006			CN1CCC(NC(=O)c2cnc(Nc3cc(Cl)cc(Cl)c3)nc2N[C@H]2CCCCNC2=O)CC1	4	
200 (≈ 83.7 µg/mL)	1	120	0.044	31		O[C@@H]1COC[C@H]1Nc1nc(Nc2cc(Cl)cc(Cl)c2)ncc1-c1cccnc1	1.5	inhibition at 3 µM (CYP2D6): 88%
1.3 (≈ 0.66 µg/mL)				< 5	29	O=C(NCCCN1CCOC1=O)c1cnc(NCc2cc(Cl)ccc2Cl)nc1NC1CCCC1	33	
3.5 (≈ 1.64 µg/mL)	2	37	0.003			CC[C@@H](CO)Nc1nc(Nc2cc(Cl)cc(Cl)c2)ncc1C(=O)NC1CCN(C)CC1	3.4	
5.2 (≈ 2.18 µg/mL)	0.2	21	0.092	3		Cc1cc(-c2cnc(Nc3cc(Cl)cc(Cl)c3)nc2NC2CCNCC2)on1	1.3	inhibition at 3 µM (CYP2D6): 81%
200 (≈ 98.5 µg/mL)	< 0.1	38	0.19	60	8.5	CN1CCC(NC(=O)c2cnc(NCc3cc(Cl)ccc3Cl)nc2NC2CCNCC2)CC1	> 50	bioavailability [6]: 0%; Cmax [7]: 25 ng/mL; clearance [8]: 40 mL/min/kg; Vd [9]: 0.4 L/kg; half-life [10]: 12 min
200 (≈ 88.1 µg/mL)		40	0.5		24	COc1ccccc1CNc1ncc(C(=O)NCCCCN(C)C)c(NC2CCCC2)n1	28	
200 (≈ 87.1 µg/mL)	< 0.01	48	0.15	60		O[C@@H]1COC[C@H]1Nc1nc(Nc2cc(Cl)cc(Cl)c2)ncc1-c1ccc(F)cc1	2.7	inhibition at 3 µM (CYP2D6): 24%
3.9 (≈ 1.97 µg/mL)	0.1			4	28	O=C(NCCCN1CCCC1=O)c1cnc(NCc2cc(Cl)ccc2Cl)nc1NC1CCCC1	23	
80 (≈ 35.1 µg/mL)	1.2	34	0.52	56	8.8	COc1ccccc1CNc1ncc(C(=O)NC2CCN(C)CC2)c(NC2CCCC2)n1	27	IC50 [11]: 15 µM; IC50 [12]: 21.1 µM; bioavailability [6]: 41%; Cmax [7]: 74 ng/mL; AUC [13]: 302 ng·h/mL; clearance [8]: 73 mL/min/kg; Vd [9]: 18 L/kg; half-life [10]: 210 min
7.8 (≈ 3.33 µg/mL)	1.9	5	0.38			COc1ccccc1CNc1ncc(C(=O)NCCNC(C)=O)c(NC2CCCC2)n1	35	
200 (≈ 104 µg/mL)	0.3	120	0.002	60	1.4	CN1CCC(NC(=O)c2cnc(Nc3cc(Cl)cc(Cl)c3)nc2NC2CCC(N(C)C)CC2)CC1 (stereo not given)	6.7	IC50 [14]: 3.45 µM; IC50 [15]: 19.7 µM; IC50 [12]: 7.61 µM; IC50 [16]: 8.27 µM; IC50 [17]: 0.12 µM; IC50 [18]: 12.2 µM
5.2 (≈ 2.18 µg/mL)	0.3	30	0.015	31		O[C@@H]1COC[C@H]1Nc1nc(Nc2cc(Cl)cc(Cl)c2)ncc1Br	> 100	inhibition at 3 µM (CYP2D6): 1%
7.8 (≈ 3.72 µg/mL)	0.02	14	0.27	60	7.2	CN1CCC(NC(=O)c2cnc(NCc3cc(Cl)ccc3Cl)nc2NC2CCCC2)CC1	47	IC50 [11]: 1.36 µM; IC50 (Insulin receptor): 18.6 µM; IC50 [19]: 12.5 µM; IC50 [20]: 2.39 µM; IC50 [21]: 18.6 µM; IC50 [12]: 3.17 µM; bioavailability [6]: 32%; Cmax [7]: 35 ng/mL; AUC [13]: 680 ng·h/mL; clearance [8]: 40 mL/min/kg; Vd [9]: 25 L/kg; half-life [10]: 480 min
89 (≈ 47.6 µg/mL)	2	23	0.041	57		CN1CCC(NC(=O)c2cnc(NCc3cc(Cl)ccc3Cl)nc2NC2CCC(N(C)C)CC2)CC1 (stereo not given)	1.6	
81.6 (≈ 38.1 µg/mL)	1.5			16	46	COc1ccccc1CNc1ncc(C(=O)NCCCN2CCCC2=O)c(NC2CCCC2)n1	7	
7.8 (≈ 3.12 µg/mL)	0.9	11	0.16		46	COc1ccccc1CNc1ncc(C(=O)NCCCO)c(NC2CCCC2)n1	35	
40 (≈ 19.3 µg/mL)	1.4	74	0.01	60	9.6	CN1CCC(NC(=O)c2cnc(Nc3cc(Cl)cc(Cl)c3)nc2N[C@@H]2COC[C@H]2O)CC1	0.98	IC50 [11]: 3.68 µM; IC50 [14]: 11.2 µM; IC50 [20]: 4.5 µM; bioavailability [6]: 0%; clearance [8]: 55 mL/min/kg; Vd [9]: 2.7 L/kg; half-life [10]: 780 min; IC50 [16]: 24.9 µM; IC50 [17]: 2.48 µM; IC50 [18]: 13.4 µM
12 (≈ 5.25 µg/mL)	21	60	1.3	22		COc1ccccc1CNc1ncc(C(=O)NCCc2nnn[nH]2)c(NC2CCCC2)n1	79	
40 (≈ 19.2 µg/mL)	< 0.1	35	0.009			CN1CCC(NC(=O)c2cnc(Nc3cc(Cl)cc(Cl)c3)nc2NC2CCOCC2)CC1		
